Literature values, collected in patent publication US7749961B2, “Macrocyclic peptides active against the hepatitis C virus” (Boehringer Ingelheim International GmbH, priority 2004, dated 2010).

Tested on: hepatitis C virus
Settings: two day clinical trial

SMILES: COc1ccc2c(O[C@@H]3C[C@H]4C(=O)N[C@]5(C(=O)O)C[C@H]5/C=C\CCCCC[C@H](NC(=O)OC5CCCC5)C(=O)N4C3)cc(-c3csc(NC(C)C)n3)nc2c1 [BILN 2061]
- reduction of viral loads in patients infected with the hepatitis C virus: effective in rapidly reducing viral loads
